Laboratory results reported in PMC7156458, “Synthetic biology based construction of biological activity-related library of fungal decalin-containing diterpenoid pyrones” (Nature Communications, 2020).
Read-outs that look alike come from different tables or passages of the source.

What was measured:
[1] = cytotoxicity in Drosophila DL1 cells; format: cell-based; details: Drosophila, DL1 cells (embryonic macrophage-derived), DL1 cells
Experimental: (§1) We screened the DDPs on the Drosophila assay system for cytotoxicity, inhibitory activity of innate immune signalling and insecticidal activity. The cytotoxicity of the DDPs was evaluated using two cell lines, embryonic macrophage-derived DL1 cells[58]–[60] and larval blood cell-derived l(2)mbn cells, and their IC50 values are listed in Supplementary Table 23.

DL1 cells = test: cytotoxicity in Drosophila DL1 cells; format: cell-based; details: DL1 cells; for IC50: Drosophila melanogaster, cytotoxicity
Experimental: as §1

[2] = tested on: human immunodeficiency virus-1 (HIV-1); test: anti-HIV MAGI assay; format: cell-based; details: Human immunodeficiency virus 1, MAGI, anti-HIV
Source text: (§2) We examined the inhibitory activities of DDPs against various species of bacteria (both gram-negative and gram-positive bacteria), fungi and viruses. […] In contrast, preliminary screening of the DDPs for anti-viral agents with hepatitis B virus (HBV), measles virus (MV), Epstein-Barr virus (EBV), herpes simplex virus (HSV) and human immunodeficiency virus-1 (HIV-1) indicated their selective inhibition of HIV.

[3] = tested on: hepatitis B virus (HBV), measles virus (MV), Epstein-Barr virus (EBV), herpes simplex virus (HSV); test: preliminary anti-viral screening (other viruses); format: cell-based
Source text: as §2

HCC2998 = test: cells; parameters: species or system JFCR39 human cancer cell lines; JFCR39 panel growth inhibition, sulforhodamine B total protein after 48 h; details: Homo sapiens, HCC 2998, 48 h
Experimental: (§3) Supplementary Note 24. Antiproliferative effects across the panel of JFCR39 cancer cell lines A panel of 39 human cancer cell lines, termed JFCR39, were previously described13-16. Cells were grown in RPMI-1640 (FUJIFILM Wako Pure Chemical Corporation, Tokyo, Japan) supplemented with 1 µg mL-1 kanamycin and 5% (v/v) fetal bovine serum (Nichirei Biosciences Inc, Tokyo, Japan) and incubated at 37°C in a humidified atmosphere supplemented with 5% CO2. Drug efficacy was assessed as changes in total cellular protein after 48 hours of drug treatment using a sulforhodamine B assay. Assays were done in duplicate and the GI50 was calculated as described previously13,16. The antitumor profile across the JFCR39 panel, or fingerprints were then compared to reference database containing ~2000 compounds by COMPARE algorithm16,17. Initially, we evaluated new DDP analogues for their antiproliferative activities across the panel of 39 human cancer cell lines, JFCR39[50],[51].

HT-29 = test: cells; parameters: species or system JFCR39 human cancer cell lines; JFCR39 panel growth inhibition, sulforhodamine B total protein after 48 h; details: Homo sapiens, HT-29, 48 h
Experimental: as §3

MKN-B = test: cells; parameters: species or system JFCR39 human cancer cell lines; JFCR39 panel growth inhibition, sulforhodamine B total protein after 48 h; details: 48 h
Experimental: as §3

SF-539 = test: cells; parameters: species or system JFCR39 human cancer cell lines; JFCR39 panel growth inhibition, sulforhodamine B total protein after 48 h; details: Homo sapiens, SF-539, 48 h
Experimental: as §3

[4] = replicate 1, relative to DMSO 1%, read-out: % viability, viability 1
[5] = replicate 2, relative to DMSO 1%, read-out: % viability, viability 2

C=C1CCC2C(C)(CCC=C(C)C)C(O)CCC2(C)C1Cc1c(OC)oc(C)c(C(=O)OC)c1=O (centres unmarked) [Compound 14] showed a viability at 0.04 µM [1, 4] of 109%, a viability at 0.04 µM [1, 5] of 115% and a viability at 0.2 µM [1, 4] of 94.8%. It also gave a viability at 0.2 µM [1, 5] of 82.2%, a viability at 1 µM [1, 4] of 10.1% and a viability at 1 µM [1, 5] of 8.02%. For the same compound, the viability at 4 µM [1, 4] was 5.72%, the viability at 4 µM [1, 5] was 6.14% and the viability at 10 µM [1, 4] was 6.46%. For the same compound, the viability at 10 µM [1, 5] was 5.9%, the viability at 20 µM [1, 4] was 5.02% and the viability at 20 µM [1, 5] was 4.22%. For the same compound, the “Luminescence Raw1” value (DL1 cells; 0.04 µM, replicate 1) was 2252387, the “Luminescence Raw2” value (DL1 cells; 0.04 µM, replicate 2) was 2365278 and the “Luminescence Raw1” value (DL1 cells; 0.2 µM, replicate 1) was 1952676. For the same compound, the “Luminescence Raw2” value (DL1 cells; 0.2 µM, replicate 2) was 1693730, the “Luminescence Raw1” value (DL1 cells; 1 µM, replicate 1) was 208403 and the “Luminescence Raw2” value (DL1 cells; 1 µM, replicate 2) was 165136. For the same compound, the “Luminescence Raw1” value (DL1 cells; 4 µM, replicate 1) was 117902, the “Luminescence Raw2” value (DL1 cells; 4 µM, replicate 2) was 126556 and the “Luminescence Raw1” value (DL1 cells; 10 µM, replicate 1) was 133046. The “Luminescence Raw2” value (DL1 cells; 10 µM, replicate 2) was 121508, the “Luminescence Raw1” value (DL1 cells; 20 µM, replicate 1) was 103480 and the “Luminescence Raw2” value (DL1 cells; 20 µM, replicate 2) was 86894. The IC50 (DL1 cells; average of two replicates, read-out: IC50 Average) was 0.438 µM, the IC50 (DL1 cells; average±SEM, read-out: IC50) was 0.44 ± 0.06 µM and the IC50 (DL1 cells; replicate 1, read-out: IC50 (1)) was 0.502 µM. For the same compound, the IC50 (DL1 cells; replicate 2, read-out: IC50 (2)) was 0.374 µM, the EC50 ([2]; MAGI assay, read-out: EC50) was < 0.2 µM and the EC50 ([2]; average of numeric determinations, read-out: Avg. EC50) was 0.0457 µM. For the same compound, the “effect on other viruses” value [3] was “without affecting other viruses”, the GI50 (HCC2998) was 16.7 µM and the GI50 (HT-29) was 13.2 µM. The GI50 (MKN-B) was 2.01 µM and the GI50 (SF-539) was 12.4 µM.
